In ChEMBL document CHEMBL1201862, “PubChem BioAssay data set” (2004):
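Tested at 5 concentrations; 48 h exposure; 96-well plates; endpoints linearly interpolated, else capped at highest concentration. Here, GI50 denotes the concentration required for 50% inhibition of growth.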 The source made the active and inactive calls. No stated cut-off is given here; in the data, active = GI50 up to about 1.1 µM and inactive = higher.

Key:
Test in all cases: inhibition of tumour cell growth, NCI panel, 48 h
786-0 = test system: 786-0
A498 = test system: A498
A549 = test system: A549
ACHN = test system: ACHN
CAKI-1 = test system: CAKI-1
CCRF-CEM = test system: CCRF-CEM
COLO 205 = test system: COLO 205
DLD-1 = test system: DLD-1
DMS-114 = test system: DMS-114
DMS-273 = test system: DMS-273
HCC 2998 = test system: HCC 2998
HCT-116 = test system: HCT-116
HCT-15 = test system: HCT-15
HL-60 = test system: HL-60
HOP-18 = test system: HOP-18
HOP-62 = test system: HOP-62
HOP-92 = test system: HOP-92
HT-29 = test system: HT-29
IGROV-1 = test system: IGROV-1
K562 = test system: K562
KM-20L2 = test system: KM-20L2
KM12 = test system: KM12
LOX IMVI = test system: LOX IMVI
LXFL 529 = test system: LXFL 529
M14 = test system: M14
M19-MEL = test system: M19-MEL
MOLT-4 = test system: MOLT-4
Malme-3M = test system: Malme-3M
NCI-H226 = test system: NCI-H226
NCI-H23 = test system: NCI-H23
NCI-H460 = test system: NCI-H460
NCI-H522 = test system: NCI-H522
OVCAR-3 = test system: OVCAR-3
OVCAR-4 = test system: OVCAR-4
OVCAR-5 = test system: OVCAR-5
OVCAR-8 = test system: OVCAR-8
RPMI-8226 = test system: RPMI-8226
RXF 393 = test system: RXF 393
RXF 631 = test system: RXF 631
SF-268 = test system: SF-268
SF-295 = test system: SF-295
SF-539 = test system: SF-539
SK-MEL-28 = test system: SK-MEL-28
SK-MEL-2 = test system: SK-MEL-2
SK-MEL-5 = test system: SK-MEL-5
SK-OV-3 = test system: SK-OV-3
SN12C = test system: SN12C
SNB-19 = test system: SNB-19
SNB-75 = test system: SNB-75
SNB-78 = test system: SNB-78
SR = test system: SR
SW-620 = test system: SW-620
TK-10 = test system: TK-10
U-251 = test system: U-251
UACC-257 = test system: UACC-257
UACC-62 = test system: UACC-62
UO-31 = test system: UO-31

`CC1OC(n2cc(F)c(=O)[nH]c2=O)C=CC1=O` (configuration not stated) was tested, and the GI50 (786-0) was 15.9 µM (inactive), the GI50 (A498) was 16.7 µM (inactive) and the GI50 (A549) was > 100 µM (inactive). For the same molecule, the GI50 (ACHN) was 18 µM (inactive), the GI50 (CAKI-1) was 14.5 µM (inactive) and the GI50 (CCRF-CEM) was 13.8 µM (inactive). For the same molecule, the GI50 (COLO 205) was 32.2 µM (inactive), the GI50 (DLD-1) was 18.1 µM (inactive) and the GI50 (DMS-114) was 18 µM (inactive). For the same molecule, the GI50 (DMS-273) was 18.6 µM (inactive), the GI50 (HCC 2998) was 17.8 µM (inactive) and the GI50 (HCT-116) was 16.3 µM (inactive). For the same molecule, the GI50 (HCT-15) was 20.3 µM, the GI50 (HL-60) was 17.9 µM (inactive) and the GI50 (HOP-18) was 18.3 µM (inactive). For the same molecule, the GI50 (HOP-62) was 38.8 µM (inactive), the GI50 (HOP-92) was 17.7 µM (inactive) and the GI50 (HT-29) was 23 µM (inactive). For the same molecule, the GI50 (IGROV-1) was 29.8 µM (inactive), the GI50 (K562) was 31 µM (inactive) and the GI50 (KM-20L2) was 18.4 µM (inactive). For the same molecule, the GI50 (KM12) was 17.7 µM (inactive), the GI50 (LOX IMVI) was 15 µM (inactive) and the GI50 (LXFL 529) was 16.6 µM (inactive). For the same molecule, the GI50 (M14) was 17.5 µM (inactive), the GI50 (M19-MEL) was 19.7 µM (inactive) and the GI50 (MOLT-4) was 24.2 µM (inactive). For the same molecule, the GI50 (Malme-3M) was 18.7 µM (inactive), the GI50 (NCI-H226) was 24.7 µM (inactive) and the GI50 (NCI-H23) was 83 µM (inactive). For the same molecule, the GI50 (NCI-H460) was 21.6 µM (inactive), the GI50 (NCI-H522) was 9.38 µM (inactive) and the GI50 (OVCAR-3) was 16 µM (inactive). For the same molecule, the GI50 (OVCAR-4) was 18.1 µM (inactive), the GI50 (OVCAR-5) was 16 µM (inactive) and the GI50 (OVCAR-8) was 20.7 µM (inactive). For the same molecule, the GI50 (RPMI-8226) was 21 µM (inactive), the GI50 (RXF 393) was 15.5 µM (inactive) and the GI50 (RXF 631) was 53.8 µM (inactive). For the same molecule, the GI50 (SF-268) was 19.6 µM (inactive), the GI50 (SF-295) was 17.3 µM (inactive) and the GI50 (SF-539) was 16.4 µM (inactive). The GI50 (SK-MEL-28) was 17.7 µM (inactive), the GI50 (SK-MEL-2) was 15.1 µM (inactive) and the GI50 (SK-MEL-5) was 17.4 µM (inactive). For the same molecule, the GI50 (SK-OV-3) was 29 µM (inactive), the GI50 (SN12C) was 16.4 µM (inactive) and the GI50 (SNB-19) was 17.4 µM (inactive). The GI50 (SNB-75) was 17.9 µM (inactive), the GI50 (SNB-78) was 18.7 µM (inactive) and the GI50 (SR) was 21.5 µM (inactive). The GI50 (SW-620) was 18.8 µM (inactive), the GI50 (TK-10) was 17 µM (inactive) and the GI50 (U-251) was 14.8 µM (inactive). For the same molecule, the GI50 (UACC-257) was 17.9 µM (inactive), the GI50 (UACC-62) was 17.7 µM (inactive) and the GI50 (UO-31) was 16.1 µM (inactive).
